Laboratory results published in ChEMBL document CHEMBL5291721, “A preclinical secondary pharmacology resource illuminates target-adverse drug reaction associations of marketed drugs” (Nat Commun, 2023).

Experiments:
Endothelin-1 receptor = molecular target: T1, Endothelin-1 receptor (Homo sapiens, UniProt P25101)
T1 sequence (P25101 whole entry): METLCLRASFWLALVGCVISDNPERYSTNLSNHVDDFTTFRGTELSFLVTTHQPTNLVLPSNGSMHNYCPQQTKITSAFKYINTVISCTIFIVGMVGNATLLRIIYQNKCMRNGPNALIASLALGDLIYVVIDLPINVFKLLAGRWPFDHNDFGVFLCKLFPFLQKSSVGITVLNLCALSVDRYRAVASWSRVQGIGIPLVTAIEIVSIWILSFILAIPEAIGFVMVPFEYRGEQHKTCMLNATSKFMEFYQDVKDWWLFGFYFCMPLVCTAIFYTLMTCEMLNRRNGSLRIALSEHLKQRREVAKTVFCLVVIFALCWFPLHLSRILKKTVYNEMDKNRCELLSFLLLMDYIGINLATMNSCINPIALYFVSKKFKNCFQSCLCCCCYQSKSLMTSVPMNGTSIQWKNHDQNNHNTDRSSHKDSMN

[1] = molecular target: T2, Gastrin/cholecystokinin type B receptor (Homo sapiens, UniProt P32239)
T2 sequence (P32239 whole entry): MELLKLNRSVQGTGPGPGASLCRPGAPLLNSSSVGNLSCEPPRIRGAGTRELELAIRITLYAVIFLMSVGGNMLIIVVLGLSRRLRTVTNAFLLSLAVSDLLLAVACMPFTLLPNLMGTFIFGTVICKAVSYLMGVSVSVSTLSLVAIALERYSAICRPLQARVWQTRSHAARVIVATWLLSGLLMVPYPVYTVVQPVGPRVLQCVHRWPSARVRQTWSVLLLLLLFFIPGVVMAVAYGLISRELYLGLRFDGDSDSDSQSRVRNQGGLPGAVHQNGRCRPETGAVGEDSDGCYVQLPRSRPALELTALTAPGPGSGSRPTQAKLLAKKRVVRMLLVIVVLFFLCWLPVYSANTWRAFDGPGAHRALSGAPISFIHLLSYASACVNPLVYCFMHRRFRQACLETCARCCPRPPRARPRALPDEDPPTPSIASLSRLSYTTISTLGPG

Glucocorticoid receptor = molecular target: T3, Glucocorticoid receptor (Homo sapiens, UniProt P04150)
T3 sequence (P04150 whole entry): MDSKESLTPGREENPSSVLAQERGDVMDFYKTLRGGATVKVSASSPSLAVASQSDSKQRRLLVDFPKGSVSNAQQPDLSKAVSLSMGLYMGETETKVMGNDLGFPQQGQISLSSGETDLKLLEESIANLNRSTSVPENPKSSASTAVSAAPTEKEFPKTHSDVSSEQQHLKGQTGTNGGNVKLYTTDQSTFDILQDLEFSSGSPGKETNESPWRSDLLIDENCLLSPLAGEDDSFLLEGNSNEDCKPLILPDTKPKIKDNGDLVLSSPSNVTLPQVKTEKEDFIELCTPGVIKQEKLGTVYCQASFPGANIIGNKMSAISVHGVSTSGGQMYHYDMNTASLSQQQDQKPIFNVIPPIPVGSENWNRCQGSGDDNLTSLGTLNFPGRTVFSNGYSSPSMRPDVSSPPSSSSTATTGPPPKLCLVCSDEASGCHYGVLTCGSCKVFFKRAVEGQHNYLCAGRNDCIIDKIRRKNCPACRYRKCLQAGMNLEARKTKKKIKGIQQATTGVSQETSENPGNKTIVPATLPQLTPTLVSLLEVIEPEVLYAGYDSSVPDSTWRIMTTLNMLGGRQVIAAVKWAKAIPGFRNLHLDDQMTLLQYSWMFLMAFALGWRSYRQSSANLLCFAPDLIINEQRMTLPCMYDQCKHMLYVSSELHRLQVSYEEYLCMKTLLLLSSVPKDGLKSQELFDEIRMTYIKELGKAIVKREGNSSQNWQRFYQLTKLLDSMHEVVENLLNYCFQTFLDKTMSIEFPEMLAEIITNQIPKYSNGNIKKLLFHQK

[2] = molecular target: 3',5'-cyclic-AMP phosphodiesterase 4D (Homo sapiens, UniProt Q08499); format: functional
[3] = molecular target: Sodium-dependent dopamine transporter (Homo sapiens, UniProt Q01959)
[4] = molecular target: Neuronal acetylcholine receptor subunit alpha-4 (Homo sapiens, UniProt P43681)
Thromboxane A2 receptor = molecular target: T4, Thromboxane A2 receptor (Homo sapiens, UniProt P21731)
T4 sequence (P21731 whole entry): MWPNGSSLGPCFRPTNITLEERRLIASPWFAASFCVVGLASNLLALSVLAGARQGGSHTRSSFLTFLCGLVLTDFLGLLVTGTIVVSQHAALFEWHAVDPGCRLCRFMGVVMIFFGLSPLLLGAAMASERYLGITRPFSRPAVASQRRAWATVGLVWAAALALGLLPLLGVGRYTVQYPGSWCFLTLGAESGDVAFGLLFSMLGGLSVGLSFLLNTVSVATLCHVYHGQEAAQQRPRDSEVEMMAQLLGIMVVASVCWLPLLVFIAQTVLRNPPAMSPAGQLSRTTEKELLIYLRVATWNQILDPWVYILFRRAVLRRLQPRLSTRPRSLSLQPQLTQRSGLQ

Adenosine receptor A2a = Adenosine receptor A2a (Homo sapiens, UniProt P29274)
[5] = molecular target: 5-hydroxytryptamine receptor 2B (Homo sapiens, UniProt P41595); format: functional, cell-based
[6] = molecular target: T5, Alpha-2B adrenergic receptor (Homo sapiens, UniProt P18089)
T5 sequence (P18089 whole entry): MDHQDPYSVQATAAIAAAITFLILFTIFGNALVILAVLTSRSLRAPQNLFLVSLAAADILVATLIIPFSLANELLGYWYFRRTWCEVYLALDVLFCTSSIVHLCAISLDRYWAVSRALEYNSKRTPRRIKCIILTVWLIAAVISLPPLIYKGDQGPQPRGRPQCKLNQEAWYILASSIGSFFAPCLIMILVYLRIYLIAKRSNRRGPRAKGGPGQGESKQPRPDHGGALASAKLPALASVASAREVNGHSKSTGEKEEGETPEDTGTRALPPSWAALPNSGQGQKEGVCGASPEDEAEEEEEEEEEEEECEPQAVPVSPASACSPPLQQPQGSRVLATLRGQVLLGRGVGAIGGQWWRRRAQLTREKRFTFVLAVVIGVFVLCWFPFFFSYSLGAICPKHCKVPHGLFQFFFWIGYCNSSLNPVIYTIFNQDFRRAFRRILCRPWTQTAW
Note: assay procedure not described here.

Sequence of Neuronal acetylcholine receptor subunit alpha-4 (P43681 whole entry): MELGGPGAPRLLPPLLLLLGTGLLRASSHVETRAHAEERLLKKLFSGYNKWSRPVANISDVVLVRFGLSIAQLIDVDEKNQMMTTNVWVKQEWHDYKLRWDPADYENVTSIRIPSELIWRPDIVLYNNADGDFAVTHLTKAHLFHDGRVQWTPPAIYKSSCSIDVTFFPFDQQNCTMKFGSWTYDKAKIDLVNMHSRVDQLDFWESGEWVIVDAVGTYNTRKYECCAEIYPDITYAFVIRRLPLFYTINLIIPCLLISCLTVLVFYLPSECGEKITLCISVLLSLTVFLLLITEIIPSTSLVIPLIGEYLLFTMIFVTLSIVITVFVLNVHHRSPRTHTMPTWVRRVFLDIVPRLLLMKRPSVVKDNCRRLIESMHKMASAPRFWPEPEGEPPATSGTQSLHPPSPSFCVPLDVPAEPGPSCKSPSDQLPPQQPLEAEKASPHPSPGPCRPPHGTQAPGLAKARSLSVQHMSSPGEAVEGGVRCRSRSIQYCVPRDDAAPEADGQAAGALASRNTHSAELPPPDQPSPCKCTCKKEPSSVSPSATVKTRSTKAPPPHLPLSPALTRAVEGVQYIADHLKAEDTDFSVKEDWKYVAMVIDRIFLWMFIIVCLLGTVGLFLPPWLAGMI
Sequence of 3',5'-cyclic-AMP phosphodiesterase 4D (Q08499 whole entry): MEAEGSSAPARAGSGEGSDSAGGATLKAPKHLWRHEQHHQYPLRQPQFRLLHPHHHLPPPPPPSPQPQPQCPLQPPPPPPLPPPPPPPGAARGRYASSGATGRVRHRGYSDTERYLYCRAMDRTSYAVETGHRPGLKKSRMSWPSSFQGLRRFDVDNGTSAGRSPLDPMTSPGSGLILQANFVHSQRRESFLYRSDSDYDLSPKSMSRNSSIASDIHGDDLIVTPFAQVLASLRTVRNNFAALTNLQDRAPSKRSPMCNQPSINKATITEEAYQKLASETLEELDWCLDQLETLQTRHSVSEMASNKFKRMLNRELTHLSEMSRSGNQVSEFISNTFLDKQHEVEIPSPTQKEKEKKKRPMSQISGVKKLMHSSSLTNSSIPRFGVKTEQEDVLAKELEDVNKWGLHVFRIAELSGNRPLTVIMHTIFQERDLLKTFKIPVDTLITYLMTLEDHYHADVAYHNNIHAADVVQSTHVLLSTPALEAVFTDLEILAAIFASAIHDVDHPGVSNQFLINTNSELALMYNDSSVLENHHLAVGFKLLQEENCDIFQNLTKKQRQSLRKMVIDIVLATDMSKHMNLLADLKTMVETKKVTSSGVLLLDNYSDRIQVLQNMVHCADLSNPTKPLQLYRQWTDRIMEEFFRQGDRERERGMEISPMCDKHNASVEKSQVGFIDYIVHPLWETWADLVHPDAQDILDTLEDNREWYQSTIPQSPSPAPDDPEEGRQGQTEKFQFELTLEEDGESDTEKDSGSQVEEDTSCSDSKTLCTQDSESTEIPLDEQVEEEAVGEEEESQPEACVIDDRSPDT
Sequence of Sodium-dependent dopamine transporter (Q01959 whole entry): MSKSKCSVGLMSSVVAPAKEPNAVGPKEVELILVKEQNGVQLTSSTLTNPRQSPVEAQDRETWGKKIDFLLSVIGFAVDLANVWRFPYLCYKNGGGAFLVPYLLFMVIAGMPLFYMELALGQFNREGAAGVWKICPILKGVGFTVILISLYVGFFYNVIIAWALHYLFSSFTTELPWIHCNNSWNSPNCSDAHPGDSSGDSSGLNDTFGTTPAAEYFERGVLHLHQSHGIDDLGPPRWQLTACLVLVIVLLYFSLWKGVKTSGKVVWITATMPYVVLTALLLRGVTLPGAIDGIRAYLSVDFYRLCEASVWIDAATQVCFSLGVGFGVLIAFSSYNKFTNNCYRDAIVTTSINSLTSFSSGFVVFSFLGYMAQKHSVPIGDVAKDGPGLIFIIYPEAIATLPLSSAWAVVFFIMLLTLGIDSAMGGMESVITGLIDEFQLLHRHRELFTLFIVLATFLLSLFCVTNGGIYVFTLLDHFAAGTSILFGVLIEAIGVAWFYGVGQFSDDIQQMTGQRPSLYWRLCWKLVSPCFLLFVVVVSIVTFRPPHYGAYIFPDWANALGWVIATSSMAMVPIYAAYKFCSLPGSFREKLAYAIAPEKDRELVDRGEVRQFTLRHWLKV
Sequence of Adenosine receptor A2a (P29274 whole entry): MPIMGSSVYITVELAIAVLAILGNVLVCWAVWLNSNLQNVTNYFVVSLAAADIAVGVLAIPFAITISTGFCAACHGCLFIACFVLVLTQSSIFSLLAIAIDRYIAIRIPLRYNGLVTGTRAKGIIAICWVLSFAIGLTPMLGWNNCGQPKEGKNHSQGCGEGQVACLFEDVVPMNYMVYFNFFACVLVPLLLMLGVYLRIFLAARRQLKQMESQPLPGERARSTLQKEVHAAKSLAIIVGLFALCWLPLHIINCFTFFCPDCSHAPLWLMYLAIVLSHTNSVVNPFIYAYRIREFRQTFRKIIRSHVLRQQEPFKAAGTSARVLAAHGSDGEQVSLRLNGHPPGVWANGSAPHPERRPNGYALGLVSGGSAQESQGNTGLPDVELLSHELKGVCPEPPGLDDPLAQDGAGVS
Sequence of 5-hydroxytryptamine receptor 2B (P41595 whole entry): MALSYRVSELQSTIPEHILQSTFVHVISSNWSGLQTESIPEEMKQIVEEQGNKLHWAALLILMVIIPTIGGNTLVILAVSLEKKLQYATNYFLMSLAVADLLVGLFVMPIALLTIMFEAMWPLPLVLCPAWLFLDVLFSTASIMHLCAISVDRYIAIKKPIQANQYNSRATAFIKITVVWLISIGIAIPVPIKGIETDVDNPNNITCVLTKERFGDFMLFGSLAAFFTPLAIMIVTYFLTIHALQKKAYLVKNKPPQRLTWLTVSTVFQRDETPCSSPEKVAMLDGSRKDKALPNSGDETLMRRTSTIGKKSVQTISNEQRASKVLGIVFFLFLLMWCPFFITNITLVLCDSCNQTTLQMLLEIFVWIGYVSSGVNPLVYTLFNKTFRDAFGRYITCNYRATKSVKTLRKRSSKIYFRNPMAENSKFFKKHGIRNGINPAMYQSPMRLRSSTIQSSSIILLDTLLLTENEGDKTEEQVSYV

| SMILES | AC50 (Endothelin-1 receptor) | AC50 [1] | AC50 (Glucocorticoid receptor) | AC50 [2] | AC50 [3] | AC50 [4] | AC50 (Thromboxane A2 receptor) | AC50 (Adenosine receptor A2a) | AC50 [5] | AC50 [6] |
| --- | --- | --- | --- | --- | --- | --- | --- | --- | --- | --- |
| COc1ccc2c(c1)c(CC(=O)OCC(=O)O)c(C)n2C(=O)c1ccc(Cl)cc1 [ACEMETACIN] | > 30 µM | > 10 µM | > 30 µM | > 30 µM | > 30 µM | > 30 µM | > 30 µM | > 30 µM | > 30 µM | – |
| CC(=O)OCC(=O)[C@@]12OC3(CCCC3)O[C@@H]1C[C@H]1[C@@H]3CCC4=CC(=O)C=C[C@]4(C)[C@@]3(F)[C@@H](O)C[C@@]12C [AMCINONIDE] | – | – | 0.016 µM | > 30 µM | > 10 µM | > 10 µM | > 10 µM | > 10 µM | > 10 µM | > 10 µM |
| CN1CCc2cccc3c2[C@H]1Cc1ccc(O)c(O)c1-3 [APOMORPHINE] | > 30 µM | 23.4 µM | > 30 µM | 2.2 µM | > 30 µM | > 10 µM | > 30 µM | > 30 µM | 4.7 µM | – |
| Cc1cc2c(OCC(CNC(C)(C)C)OC(=O)c3ccccc3)cccc2[nH]1 (stereo unspecified) [BOPINDOLOL] | > 30 µM | > 30 µM | > 30 µM | > 30 µM | 12 µM | > 30 µM | > 30 µM | > 30 µM | 19 µM | – |
| CC(C)C(=O)OCC(=O)[C@@]12O[C@H](C3CCCCC3)O[C@@H]1C[C@H]1[C@@H]3CCC4=CC(=O)C=C[C@]4(C)[C@H]3[C@@H](O)C[C@@]12C [CICLESONIDE] | – | – | – | > 30 µM | > 10 µM | > 10 µM | > 10 µM | > 30 µM | > 10 µM | > 10 µM |
| CC(C)(Oc1ccc(C2CC2(Cl)Cl)cc1)C(=O)O (stereo unspecified) [CIPROFIBRATE] | > 30 µM | > 30 µM | > 30 µM | > 30 µM | > 30 µM | > 30 µM | > 30 µM | > 30 µM | > 30 µM | – |
| CN1C(=O)CC(=O)N(c2ccccc2)c2cc(Cl)ccc21 [CLOBAZAM] | – | – | > 10 µM | 10 µM | > 10 µM | > 10 µM | > 10 µM | > 10 µM | > 10 µM | > 10 µM |
| Cc1c(O)c(=O)ccn1C [DEFERIPRONE] | > 30 µM | > 30 µM | > 30 µM | > 30 µM | > 30 µM | > 30 µM | > 30 µM | > 30 µM | > 30 µM | – |
| C#CC1(OC(N)=O)CCCCC1 [ETHINAMATE] | – | – | > 10 µM | > 30 µM | > 10 µM | > 10 µM | > 10 µM | > 10 µM | > 10 µM | > 10 µM |
